According to PMC12163317, “The food effect on the pharmacokinetics of TQB3616 capsule in Chinse healthy subjects: a randomized, open-label, single-center, two-period, two-sequence crossover phase I clinical trial” (Frontiers in Pharmacology, 2025):

Assays:
MCF-7 tumor = system: MCF-7 tumor; design: method as in unpublished data; conditions: ref unpublished data, cited from earlier work
[1] = Safety analysis, adverse events (CTCAE version 5.0) in the food-effect trial; type: in vivo, human
From the text: The safety analysis utilized the safety data set (SS), comprising all subjects receiving TQB3616 with recorded safety assessments. The safety assessments indicators included adverse events, serious adverse events, laboratory tests (routine blood, blood biochemistry, urinalysis, and coagulation), vital signs ([…]), 12-lead electrocardiogram, and physical examination. The frequency, type, extent, and comorbid medications of all treatment-emergent adverse events (TEAEs) occurring during treatment were recorded systematically documented. For severity, adverse events were rated and documented using the National Cancer Institute-Common Terminology Criteria for Adverse Events (CTCAE) version 5.0. The Medical Dictionary for Regulatory Activities (MedDRA) was used to encode the classification of adverse events. Any adverse events observed during the trial were monitored until resolution, return to baseline levels, or stabilization the subject’s condition.

[2] = Food effect on pharmacokinetics of TQB3616 capsule, crossover phase I trial, plasma concentration by LC-MS/MS; type: in vivo, human; conditions: for AUC_Extrap / t1/2 / λZ / AUC0-t / AUC0-∞ / Cmax: mean ± SD; for AUC0-t / AUC0-∞ / Cmax / Tmax: single oral 180 mg; for Tmax: median (min, max)
Method: This was a randomized, open-label, single-center, two-period, two-sequence crossover early phase I clinical trial to evaluate the food effect on the pharmacokinetics of TQB3616 capsules in healthy subjects. The trial was conducted at Affiliated Hospital of Changchun University of Chinese Medicine and the protocol was approved by the Ethics Committee of the Affiliated Hospital of Changchun University of Chinese Medicine (CCZYFYLL 2021-006). The ethical approval process of this study complied with the requirements of Good Clinical Practice (GCP), the Declaration of Helsinki and the relevant domestic laws and regulations. All subjects had provided written informed consent before the study.
Subjects were admitted to the research center 2 days prior to drug administration and randomly assigned to either Group A or Group B at a 1:1 ratio. Group A, subjects received the study drug under fasted condition in period one and under fed condition in period 2. Conversely, in Group B, subjects received the study drug under fed conditions in the first period and under fasting conditions in the second period. The study employed a crossover design, with a washout period of at least 19 days between the two treatment periods.
The study protocol mandated that subjects take the medication after an overnight fast lasting at least 10 h. In a fasted condition, subjects consumed a 180 mg TQB3616 capsule with 240 mL of warm water, ensuring they remained and fasted for an additional 4 h post-dose. In a fed condition, subjects consumed a 180 mg TQB3616 capsule with 240 mL of warm water after consuming a high-fat, high-calorie breakfast (approximately 800–1,000 kcal, Supplementary table) 30 min prior to adminstration, subjects began their breakfast and completed the meal within the next 30 min. Capsules were swallowed whole without chewing.
Pharmacokinetic (PK) samples were collected at specific times: 0 h (within 60 min prior to dosing), 1 h, 2 h, 4 h, 5 h, 5.5 h, 6 h, 6.5 h, 7 h, 7.5 h, 8 h, 12 h, 24 h, 48 h, 72 h, 120 h, 168 h and 264 h post-dosing, totaling 18 sampling points. At each scheduled time, approximately 3 mL of blood was collected with a pre-chilled EDTA-K2 tubes. After gentle 180° inversion (×4) for homogenization, samples were immediately transferred to an ice bath. All blood specimens were centrifuged at 3,500 rpm for 10 min within 30 min of collection. The obtained plasma was aliquoted and stored at −80°C ± 10°C until batch analysis.
(§1) Plasma concentrations of TQB3616 were quantified using a validated liquid chromatography-tandem mass spectrometry (LC-MS/MS) method. Calibration standards and quality control samples (K2-EDTA plasma matrix) were prepared using [D8]-TQB3616 as the internal standard. Protein precipitation extraction from 100 μL plasma was performed followed by chromatographic separation on a C18 column (50 × 2.1 mm, 1.7 μm). Mass transitions m/z 447.1→431.3 (TQB3616) and m/z 455.2→439.3 (IS) were monitored for quantification.
Phoenix WinNonlin (version 8.3.4) was used to calculate pharmacokinetic parameters, including: […] (Tmax), area under the curve (AUC) from time zero to the last measurable concentration (AUC0-t), AUC from time zero to observed infinity (AUC0- ∞ ), peak concentration (Cmax),terminal half-life of analyte in plasma (t1/2), terminal rate constant (λz), and extrapolated AUC percentage (AUCextrp (%)). Other statistical analyses were performed using SAS (version 9.4). All tests were considered statistically significant at p < 0.05.
Based on the Pharmacokinetics Parameter Set (PKPS), main parameters were summarized by fasting/fed groups using sample size, arithmetic mean, standard deviation, coefficient of variation, median, minimum, maximum, as well as geometric mean and geometric coefficient of variation.
For the food-effect equivalence analysis set (BES), a mixed-effects model analyzed natural log-transformed Cmax, AUC0-t, and AUC0- ∞ . […]

[3] = Stability of TQB3616 in LC-MS/MS method validation (K2-EDTA plasma matrix); type: in vitro ADME
Method: as §1
This study undertook a comprehensive validation of the LC-MS/MS methodology for quantifying TQB3616. The validated quantitative range for TQB3616 was established between 0.3 ng/mL and 300 ng/mL. […] Sample dilution integrity was confirmed at 20-fold dilution.

[4] = design: method as in unpublished data; conditions: ref unpublished data; cited from earlier work
[5] = system: HR+/HER2-breast cancer MCF-7 cells; design: method as in unpublished data; conditions: in vitro; ref unpublished data; cited from earlier work
CDK4/6 = system: CDK4/6; design: method as in unpublished data; conditions: preclinical; ref unpublished data; cited from earlier work
[6] = design: method as in unpublished data; conditions: ref unpublished data, cited from earlier work
[7] = both periods, 16 subjects in safety set
[8] = coefficient of variation, equivalence analysis fed vs fasted

CC(C)c1c2cc(-c3nc(Nc4ccc(N5CCNCC5)cn4)ncc3F)ccc2nn1C [TQB3616]
anti-tumor efficacy compared with Palbociclib (MCF-7 tumor; human MCF-7 xenograft model): comparable anti-tumor efficacy to Palbociclib at reduced dosage levels | MCF-7 tumor growth (MCF-7 tumor; in vivo): suppresses MCF-7 tumor growth in vivo | TEAE Abdominal discomfort, n (%) ([1]; Fasted): 7.42% | TEAE Abdominal pain, n (%) ([1]; Fasted): 4.94% | TEAE Blood bilirubin increased, n (%) ([1]; Fasted): 1.23% | TEAE Blood triglycerides increased, n (%) ([1]; Fasted): 7.42% | TEAE Diarrhea, n (%) ([1]; Fasted): 13.58% | TEAE Nausea, n (%) ([1]; Fasted): 7.42% | TEAE Protein total decreased, n (%) ([1]; Fasted): 1.23% | TEAE Thrombocyte count decreased, n (%) ([1]; Fasted): 1.23% | TEAE White blood cells urine positive, n (%) ([1]; Fasted): 2.47% | TEAE emesis, n (%) ([1]; Fasted): 6.17% | TEAE laboratory tests, n (%) ([1]; Fasted): 13.58% | TEAE Abdominal discomfort, n (%) ([1]; Fed): 11.11% | TEAE Abdominal pain, n (%) ([1]; Fed): 2.47% | TEAE Blood bilirubin increased, n (%) ([1]; Fed): 1.23% | TEAE Blood bilirubin unconjugated increased, n (%) ([1]; Fed): 1.23% | TEAE Blood triglycerides increased, n (%) ([1]; Fed): 4.94% | TEAE Diarrhea, n (%) ([1]; Fed): 12.35% | TEAE Gastrointestinal Disorders, n (%) ([1]; Fed): 33.33% | TEAE Head discomfort, n (%) ([1]; Fed): 1.23% | TEAE Nausea, n (%) ([1]; Fed): 3.7% | TEAE Nervous System Disorders, n (%) ([1]; Fed): 1.23% | TEAE Protein total decreased, n (%) ([1]; Fed): 1.23% | TEAE Red blood cells urine positive, n (%) ([1]; Fed): 1.23% | TEAE Urinary occult blood positive, n (%) ([1]; Fed): 2.47% | TEAE emesis, n (%) ([1]; Fed): 3.7% | adverse events related to the drug ([1]; both periods): 77 | drug-related adverse events of grade II ([1]; both periods): two | serious adverse events, deaths, unexpected serious adverse reactions ([1]; both periods): No serious adverse events, deaths, or unexpected serious adverse reactions occurred | subjects with adverse events [1, 7]: 16 | total adverse events (AEs) [1, 7]: 81 | average time to spontaneous resolution of gastrointestinal reactions ([1]; fasted period (range: 0–10 h)): 3.2 h | average time of occurrence of gastrointestinal reactions post-dosing ([1]; fasted period (range: 1.7–7.3 h)): 4.2 h | average time to spontaneous resolution of gastrointestinal reactions ([1]; fed period (range: 0–9.8 h)): 2.2 h | average time of occurrence of gastrointestinal reactions post-dosing ([1]; fed period (range: 2.1–8.4 h)): 4.3 h | AUC_Extrap ([2]; Fasted (n = 11)): 7.57 ± 3.29% | t1/2 ([2]; Fasted (n = 11)): 71.27 ± 11.83 h | λZ ([2]; Fasted (n = 11)): 0.01 ± 0.002 h⁻¹ | AUC0-t ([2]; Fasted (n = 11)): 3,634.80 ± 2,174.18 h ^a ng/mL | AUC0-∞ ([2]; Fasted (n = 11)): 3,920.86 ± 2,325.20 h ^a ng/mL | Cmax ([2]; Fasted (n = 11)): 60.39 ± 37.17 ng/mL | Tmax ([2]; Fasted (n = 11)): 6.0 (5.0, 24.0) h | AUC0-t GeoMean ([2]; Fasted, n = 11): 3,303.72 h*ng/mL | AUC0-∞ GeoMean ([2]; Fasted, n = 11): 3,584.79 h*ng/mL | Cmax GeoMean ([2]; Fasted, n = 11): 48.47 ng/mL | AUC_Extrap ([2]; Fed (n = 13)): 6.97 ± 2.90% | t1/2 ([2]; Fed (n = 13)): 68.95 ± 10.68 h | λZ ([2]; Fed (n = 13)): 0.01 ± 0.002 h⁻¹ | AUC0-t ([2]; Fed (n = 13)): 5305.30 ± 1948.11 h ^a ng/mL | AUC0-∞ ([2]; Fed (n = 13)): 5710.59 ± 2,100.68 h ^a ng/mL | Cmax ([2]; Fed (n = 13)): 75.39 ± 28.34 ng/mL | Tmax ([2]; Fed (n = 13)): 7.0 (7.0, 12.0) h | AUC0-t GeoMean ([2]; Fed, n = 13): 4792.51 ng·h/mL | AUC0-∞ GeoMean ([2]; Fed, n = 13): 5130.98 ng·h/mL | Cmax GeoMean ([2]; Fed, n = 13): 71.76 ng/mL | AUC0-t CV [2, 8]: 26.51% | AUC0-∞ CV [2, 8]: 26.07% | Cmax CV [2, 8]: 53.42% | AUC0-t Fed/Fasted Ratio (geometric mean ratio) ([2]; fasted as the reference): 145.06% | AUC0-∞ Fed/Fasted Ratio (geometric mean ratio) ([2]; fasted as the reference): 143.13% | Cmax Fed/Fasted Ratio (geometric mean ratio) ([2]; fasted as the reference): 148.04% | AUC0-t ([2]; fasting): 3,634.80 ± 2,174.18 h·ng/mL | AUC0-∞ ([2]; fasting): 3,920.86 ± 2,325.20 h·ng/mL | increase of AUC0-t by food intake ([2]; fed compared with fasted): 45.95% | increase of AUC0-∞ by food intake ([2]; fed compared with fasted): 45.65% | rise in AUC with a meal ([2]; fed compared with fasted): 45% | AUC0-t ([2]; fed): 5305.30 ± 1948.11 ng·h/mL | AUC0-∞ ([2]; fed): 5710.59 ± 2,100.68 h·ng/mL | postprandial increase in AUC ([2]; females): 69.9% | postprandial increase in Cmax ([2]; females): 33.5% | postprandial increase in AUC ([2]; males): 38.2% | postprandial increase in Cmax ([2]; males): 20.9% | freeze-thaw stability ([3]; method validation): endured four freeze-thaw cycles | stability at room temperature ([3]; method validation): at least 23.5 h | long-term stability ([3]; −20°C): 89 days | long-term stability ([3]; −80°C): 89 days | preclinical toxicity findings [4]: gastrointestinal toxicity and hematological/serum biochemical abnormalities were observed at medium-to-high dose levels | inhibition of proliferation of MCF-7 cells [5]: selectively inhibits proliferation | inhibition of CDK4/6 kinase activity (CDK4/6): potent inhibitory effects | time to steady-state plasma concentrations ([6]; continuous dosing): approximately 7 days | exposure increase with dose escalation ([6]; dose range 20–150 mg, single administration): exposure increase ratio slightly exceeding the dose increase ratio
